Counter-ions that a name gives are not always drawn. Like-named read-outs stand apart in the source and are kept apart here.
Target: T1, human histamine H4 receptor (Homo sapiens, UniProt Q9H3N8)
T1 construct: expressed in transfected cells; host or cells: SK-N-MC cells or COS7 cells, transiently transfected; cell membranes used
Test: Binding Assay on Recombinant Human Histamine H4 Receptor
Experimental: Binding Assay on Recombinant Human Histamine H4 Receptor
SK-N-MC cells or COS7 cells were transiently transfected with pH4R and grown in 150 cm^2 tissue culture dishes. Cells were washed with saline solution, scraped with a cell scraper and collected by centrifugation (1000 rpm, 5 min). Cell membranes were prepared by homogenization of the cell pellet in 20 mM Tris-HCl with a polytron tissue homogenizer for 10 sec at high speed. Homogenate was centrifuged at 1000 rpm for 5 min at 4° C. […] The final pellet was resuspended in 50 mM Tris-HCl. Cell membranes were incubated with ^3H-histamine (5-70 nM) in the presence or absence of excess histamine (10,000 nM). […] Membranes were harvested by rapid filtration over Whatman GF/C filters and washed 4 times with ice-cold 50 mM Tris HCl. Filters were then dried, mixed with scintillant and counted for radioactivity. SK-N-MC or COS7 cells expressing human histamine H4 receptor were used to measure the affinity of binding of other compounds and their ability to displace ^3H-ligand binding by incubating the above-described reaction in the presence of various concentrations of inhibitor or compound to be tested.

[1] = competition binding with 3H-histamine (5 nM), membranes of SK-N-MC or COS7 cells expressing human H4 receptor, Cheng-Prusoff, KD 5 nM, average of results obtained, read-out: Ki

T1 sequence (Q9H3N8 whole entry): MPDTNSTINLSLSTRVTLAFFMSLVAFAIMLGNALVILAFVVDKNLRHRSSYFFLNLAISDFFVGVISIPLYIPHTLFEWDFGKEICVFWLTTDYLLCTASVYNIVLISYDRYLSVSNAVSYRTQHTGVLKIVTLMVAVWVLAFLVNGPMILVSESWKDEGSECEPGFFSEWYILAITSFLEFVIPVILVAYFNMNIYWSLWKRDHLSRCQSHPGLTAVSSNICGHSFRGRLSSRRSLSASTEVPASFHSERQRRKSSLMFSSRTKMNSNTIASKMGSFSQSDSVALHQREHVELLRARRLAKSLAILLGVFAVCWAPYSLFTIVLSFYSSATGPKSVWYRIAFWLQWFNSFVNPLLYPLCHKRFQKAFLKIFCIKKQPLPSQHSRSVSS

Structure (SMILES) | Ki [nM] | Ki [1] [nM]
Nc1nc(N2CCN3CCCC3C2)c2oc3ccc(Cl)cc3c2n1 (stereo not shown) [Example 69, 8-Chloro-4-(hexahydro-pyrrolo[1,2-a]pyrazin-2-yl)-benzo[4,5]furo[3,2-d]pyrimidin-2-ylamine trifluoroacetic acid salt] | 15 | 
Nc1nc(N2C[C@@H]3C[C@H]2CN3)c2oc3ccc(F)c(F)c3c2n1 [Example 149, (S,S)-4-(2,5-Diaza-bicyclo[2.2.1]hept-2-yl)-8,9-difluoro-benzo[4,5]furo[3,2-d]pyrimidin-2-ylamine trifluoroacetic acid salt] |  | > 10000
Nc1nc(N2C[C@@H]3C[C@H]2CN3)c2oc3ccc(Cl)c(Cl)c3c2n1 [Example 98, (S,S)-8,9-Dichloro-4-(2,5-diaza-bicyclo[2.2.1]hept-2-yl)-benzo[4,5]furo[3,2-d]pyrimidin-2-ylamine trifluoroacetic acid salt] |  | > 10000
CNC1CCN(c2nc(NCCO)nc3c2oc2ccc(Cl)cc23)C1 (stereo not shown) [Example 126, 2-[8-Chloro-4-(3-methylamino-pyrrolidin-1-yl)-benzo[4,5]furo[3,2-d]pyrimidin-2-ylamino]-ethanol] |  | 210
Nc1nc(N2CCC(N)C2)c2oc3ccc(Cl)cc3c2n1 (stereo not shown) [Example 16, 4-(3-Amino-pyrrolidin-1-yl)-8-chloro-benzo[4,5]furo[3,2-d]pyrimidin-2-ylamine trifluoroacetic acid salt] |  | 2.3
CN[C@@H]1CCN(c2nc(N)nc3c2oc2ccc(Cl)c(Cl)c23)C1 [Example 99, (R)-8,9-Dichloro-4-(3-methylamino-pyrrolidin-1-yl)-benzo[4,5]furo[3,2-d]pyrimidin-2-ylamine trifluoroacetic acid salt] |  | 10
Nc1nc(N2CC3CCCNC3C2)c2oc3ncccc3c2n1 (stereo not shown) [Example 43, 8-(Octahydro-pyrrolo[3,4-b]pyridin-6-yl)-9-oxa-1,5,7-triaza-fluoren-6-ylamine] | 87 | 
OCCNc1nc(N2CCNCC2)c2oc3ccc(Cl)cc3c2n1 [Example 160, 2-(8-Chloro-4-piperazin-1-yl-benzo[4,5]furo[3,2-d]pyrimidin-2-ylamino)-ethanol] |  | > 10000
Nc1nc(N2CC3CCCNC3C2)c2sc3ccc(Cl)cc3c2n1 (stereo not shown) [Example 64, 8-Chloro-4-(octahydro-pyrrolo[3,4-b]pyridin-6-yl)-benzo[4,5]thieno[3,2-d]pyrimidin-2-ylamine trifluoroacetic acid salt] | 5 | 
Nc1nc(N2C[C@@H]3C[C@H]2CN3)c2oc3ccc(Cl)cc3c2n1 [Example 11, (S,S)-8-Chloro-4-(2,5-diaza-bicyclo[2.2.1]hept-2-yl)-benzo[4,5]furo[3,2-d]pyrimidin-2-ylamine] | 25 | 
Nc1nc(N2CC3CCNC3C2)c2oc3ccc(Cl)cc3c2n1 (stereo not shown) [Example 80, 8-Chloro-4-(hexahydro-pyrrolo[3,4-b]pyrrol-5-yl)-benzo[4,5]furo[3,2-d]pyrimidin-2-ylamine trifluoroacetic acid salt] | 3.6 | 
CN[C@@H]1CCN(c2nc(N)nc3c2oc2cccc(OC)c23)C1 [Example 100, (R)-9-Methoxy-4-(3-methylamino-pyrrolidin-1-yl)-benzo[4,5]furo[3,2-d]pyrimidin-2-ylamine trifluoroacetic acid salt] |  | 20
CN[C@@H]1CCN(c2nc(N)nc3c2oc2ccc(Br)cc23)C1 [Example 19, (R)-8-Bromo-4-(3-methylamino-pyrrolidin-1-yl)-benzo[4,5]furo[3,2-d]pyrimidin-2-ylamine trifluoroacetic acid salt] |  | 0.74
CN1C[C@@H]2C[C@H]1CN2c1nc(N)nc2c1oc1ccc(Cl)cc12 [Example 106, (S,S)-8-Chloro-4-(5-methyl-2,5-diaza-bicyclo[2.2.1]hept-2-yl)-benzo[4,5]furo[3,2-d]pyrimidin-2-ylamine trifluoroacetic acid salt] | 11 | 
COc1ccc2oc3c(N4C[C@H]5CCN[C@H]5C4)nc(N)nc3c2c1 (relative stereo) [Example 114, (cis)-4-(Hexahydro-pyrrolo[3,4-b]pyrrol-5-yl)-8-methoxy-benzo[4,5]furo[3,2-d]pyrimidin-2-ylamine trifluoroacetic acid salt] | 91 | 
Nc1nc(N2CCN3CCCCC3C2)c2oc3c(Cl)cc(Cl)cc3c2n1 (stereo not shown) [Example 37, 6,8-Dichloro-4-(octahydro-pyrido[1,2-a]pyrazin-2-yl)-benzo[4,5]furo[3,2-d]pyrimidin-2-ylamine trifluoroacetic acid salt] |  | 790
CN(C)[C@@H]1CCN(c2nc(N)nc3c2oc2ccc(Cl)cc23)C1 [Example 24, (R)-8-Chloro-4-(3-dimethylamino-pyrrolidin-1-yl)-benzo[4,5]furo[3,2-d]pyrimidin-2-ylamine trifluoroacetic acid salt] |  | 5.5

Structure (SMILES) | Ki [nM] | Ki [1] [nM]
CN1CCN(c2nc(N)nc3c2oc2ccc(F)c(F)c23)CC1 [Example 145, 8,9-Difluoro-4-(4-methyl-piperazin-1-yl)-benzo[4,5]furo[3,2-d]pyrimidin-2-ylamine trifluoroacetic acid salt] |  | 160
Nc1nc(N2CC(N)C2)c2oc3cccc(Cl)c3c2n1 [Example 156, 4-(3-Amino-azetidin-1-yl)-9-chloro-benzo[4,5]furo[3,2-d]pyrimidin-2-ylamine trifluoroacetic acid salt] |  | > 10000
CN1CCN(c2nc(N)nc3c2oc2cccc(F)c23)CC1 [Example 135, 9-Fluoro-4-(4-methyl-piperazin-1-yl)-benzo[4,5]furo[3,2-d]pyrimidin-2-ylamine trifluoroacetic acid salt] |  | 21
Nc1nc(NCC2CNC2)c2oc3ccc(Cl)cc3c2n1 [Example 110, N^4-Azetidin-3-ylmethyl-8-chloro-benzo[4,5]furo[3,2-d]pyrimidine-2,4-diamine trifluoroacetic acid salt] |  | 1820
Nc1nc(N2CC(N)C2)c2oc3ccc(Cl)cc3c2n1 [Example 129, 4-(3-Amino-azetidin-1-yl)-8-chloro-benzo[4,5]furo[3,2-d]pyrimidin-2-ylamine trifluoroacetic acid salt] |  | 19
CN1CCN(c2nc(NCCO)nc3c2oc2ccc(Cl)cc23)CC1 [Example 115, 2-[8-Chloro-4-(4-methyl-piperazin-1-yl)-benzo[4,5]furo[3,2-d]pyrimidin-2-ylamino]-ethanol] |  | 4.3
Nc1nc(N2CCC[C@H](N)C2)c2oc3cccc(C(F)(F)F)c3c2n1 [Example 92, (S)-4-(3-Amino-piperidin-1-yl)-9-trifluoromethyl-benzo[4,5]furo[3,2-d]pyrimidin-2-ylamine citrate salt] |  | > 10000
COc1cccc2oc3c(N4CCC[C@H](N)C4)nc(N)nc3c12 [Example 87, (S)-4-(3-Amino-piperidin-1-yl)-9-methoxy-benzo[4,5]furo[3,2-d]pyrimidin-2-ylamine trifluoroacetic acid salt] |  | > 10000
NCCNc1nc(N)nc2c1oc1ccc(Cl)cc12 [Example 112, N^4-(2-Amino-ethyl)-8-chloro-benzo[4,5]furo[3,2-d]pyrimidine-2,4-diamine trifluoroacetic acid salt] |  | 41
Nc1nc(N2C[C@@H]3C[C@H]2CN3)c2oc3cccc(Cl)c3c2n1 [Example 155, (S,S)-9-Chloro-4-(2,5-diaza-bicyclo[2.2.1]hept-2-yl)-benzo[4,5]furo[3,2-d]pyrimidin-2-ylamine trifluoroacetic acid salt] |  | 460
CN1CCN(c2nc(N)nc3c2sc2ccc(F)cc23)CC1 [Example 70, 8-Fluoro-4-(4-methyl-piperazin-1-yl)-benzo[4,5]thieno[3,2-d]pyrimidin-2-ylamine trifluoroacetic acid salt] |  | 18.9
CN[C@H]1CCN(c2nc(N)nc3c2sc2ccc(Cl)cc23)C1 [Example 65, (S)-8-Chloro-4-(3-methylamino-pyrrolidin-1-yl)-benzo[4,5]thieno[3,2-d]pyrimidin-2-ylamine trifluoroacetic acid salt] |  | 100
N[C@H]1CCCN(c2nc(NCCO)nc3c2oc2ccc(Cl)cc23)C1 [Example 161, (S)-2-[4-(3-Amino-piperidin-1-yl)-8-chloro-benzo[4,5]furo[3,2-d]pyrimidin-2-ylamino]-ethanol] |  | > 10000
CN[C@@H]1CCN(c2nc(N)nc3c2oc2c(Cl)cc(Cl)cc23)C1 [Example 5, (R)-6,8-Dichloro-4-(3-methylamino-pyrrolidin-1-yl)-benzo[4,5]furo[3,2-d]pyrimidin-2-ylamine trifluoroacetic acid salt] |  | 1.9
CN1CCN(c2nc(N)nc3c2oc2cccc(Cl)c23)CC1 [Example 151, 9-Chloro-4-(4-methyl-piperazin-1-yl)-benzo[4,5]furo[3,2-d]pyrimidin-2-ylamine trifluoroacetic acid salt] |  | 74
CN[C@@H]1CCN(c2nc(N)nc3c2oc2ccc(C(F)(F)F)cc23)C1 [Example 140, (R)-4-(3-Methylamino-pyrrolidin-1-yl)-8-trifluoromethyl-benzo[4,5]furo[3,2-d]pyrimidin-2-ylamine trifluoroacetic acid salt] |  | 1
COc1ccc2c(c1)sc1c(N3CCN(C)CC3)nc(N)nc12 [Example 159, 7-Methoxy-4-(4-methyl-piperazin-1-yl)-benzo[4,5]thieno[3,2-d]pyrimidin-2-ylamine trifluoroacetic acid salt] |  | 180

From patent US8030321B2, “Benzofuro- and benzothienopyrimidine modulators of the histamine H4 receptor” (Janssen Pharmaceutica, NV, priority 2006, dated 2011)
